Reference: patent US4543256A, “(-)-10,1L Methylenedioxy-N-N-propylnoraporphine and methods employing it for inhibiting the effects of epileptic seizures and for prevention and treatment of duodenal ulcers” (Northeastern University, priority 1982, dated 1985)
Counter-ions that a name gives are not always drawn.

Experiments:
rats [1] = test: Stereotyped behavior of rats (rating scale; score, onset and duration); assay type: in vivo, rat (male Sprague-Dawley); details: for Duration of Effect (stereotypy): complete when scores ≤3; for Stereotypy Score for 30 min after MDO--NPA: maximum possible 18.0, N=5
Description: (§1) Male Sprague-Dawley (Charles River Labs.) rats (initially 175-200 g) were housed four per cage, with free access to food and water, under controlled lighting (on 7:00 a.m. to 7:00 p.m.), constant temperature 21°-23° C. and controlled humidity (40-50%). Aporphines were administered, as described below, freshly dissolved in 1 mM citric acid mixed with 0.9% (w/v) saline (1:4, vols.); this solvent was also used as a vehicle ("placebo") control. Haloperidol was given in the same medium; 2-diethyl aminoethyl-2,2 diphenylvalerate HCl (SKF-525A) was given in saline.
Stereotyped behavior was evaluated by a trained observer according to a rating scale method reported previously (Campbell and Baldessarini, 1981a). Briefly, the ratings were as follows: 0, no stereotypy, normal locomotion; 1, discontinuous sniffing, reduced locomotion; 2, continuous sniffing, only periodic exploration; 3, continuous sniffing, mouth movements, infrequent, exploratory activity, Ratings were made each 10 min. by observation for 30 sec, typically for 60 min. (maximum score=18.0/hour).
(§2) In all experiments except those which evaluated the time-course of drug effects, rats were given an injection of vehicle and then allowed to rest for 15 min. to adapt to nonspecific arousal effects, prior to a second injection of test agent (or placebo) and immediate behavioral testing. Behavioral data were evaluated by Student's t-test and are always expressed as mean ±SEM.
Data are mean values ±SEM for N=6 rats per group given doses of each aporphine (1mg/kg/, or approximately 3 umole/kg) by orogastric intubation (P.O.), or subcutaneous (S.C.) or intraperitoneal (I.P.) injection. Stereotypy was rated for one hour as described in Methods and duration is defined as complete when scores diminished to ≤3 (out of a maximum possible score of 18).
Data are mean values ±SEM (N=4 to 8 rats per condition). […] N.D. indicates "not determined." (*) Indicates a significant difference by t-test between control and oxidase inhibitor-pretreated rats (p<0.01).
Stereotypy was rated for 60 min as described in Methods. Data are means SEM (stereotypy scores, when 18=maximum in 1 hour) for N=6 rats per group; (*) indicates p<0.0001 by t test.
Data are mean values ±SEM (N=3 to 6 rats per condition) for effects of seven aporphine compounds (R=substituents, keyed to the structure above). Full chemical names for all compounds are provided in Methods. […] Data are provided for a dose of 10 mg/kg (i.p.), although doses of 1 and 5 mg/kg were also tested.

rats [2] = test: Locomotor (general motor) activity, electronic activity monitor; assay type: in vivo, rat (male Sprague-Dawley)
Description: as §1
Locomotor activity was evaluated by use of a printing electronic activity monitor (EAM, Stoelting Co., Chicago, IL) within a sound-attenuated chamber, typically for 60 min., as described previously (Stewart, Campbell, Sperk and Baldessarini, 1979, Psychopharmacology 60 281-289; Campbell and Baldessarini, 1981a, Psychopharmacology 73:219-222.
as §2
Data are mean values ±SEM (N=4 to 8 rats per condition). Animals were pretreated with SKF-525A (40 mg/kg, i.p.) or its vehicle 30 min before MDO-NPA (in the doses noted, from 0 to 3 mg/kg, i.p.). Activity was then monitored electronically for an hour after the low doses of MDO-NPA (data in counts/hour), or rated for stereotypy every 10 min for an hour after higher doses. N.D. indicates "not determined." (*) Indicates a significant difference by t-test between control and oxidase inhibitor-pretreated rats (p<0.01).
Data are mean values ±SEM (N=3 to 6 rats per condition) for effects of seven aporphine compounds (R=substituents, keyed to the structure above). Full chemical names for all compounds are provided in Methods. Ratings are expressed as percent of the maximum possible score (100%)=18.0) of stereotypy (Placebo-injected controls yielded scores of 4.4±2.5%); and as the percent of control locomotor activity (100%=430±86 counts/hr). Data are provided for a dose of 10 mg/kg (i.p.), although doses of 1 and 5 mg/kg were also tested.

rats [3] = test: Catalepsy (maintenance of abnormal posture on bar); assay type: in vivo, rat (male Sprague-Dawley); details: i.p.
Description: as §1
Catalepsy was assessed as described in detail elsewhere (Campbell and Baldessarini, 1981a; 1981b, Life Sciences 29 1341-46). Briefly, rats were evaluated every 10 min. by timing (stopwatch) their maintenance of an abnormal posture with forelimbs on a 1 cm-diameter steel bar parallel to, and 8 cm above the bench, so that the rat rested on its hindquarters only; 60 sec. was taken as a maximum and nearly all normal untreated rats remained on the bar for less than 5 sec. […]
In all experiments except those which evaluated the time-course of drug effects, rats were given an injection of vehicle and then allowed to rest for 15 min. to adapt to nonspecific arousal effects, prior to a second injection of test agent (or placebo) and immediate behavioral testing. […]

Adenylate cyclase = Adenylate cyclase stimulation (cAMP) in rat striatal homogenates; assay type: biochemical; details: 100 μM; control (no addition) 2.38 ± 0.14; N=4
Description: of cAMP in rat striatal homogenates; inhibition of binding of

gastric acid output = test: Cysteamine induced gastric acid output; assay type: in vivo, rat; details: for INITIAL OUTPUT (gastric acid): at opening of gastric fistula, control 187 ± 20; for Gastric acid output, 1 hr: control 68 ± 17; for Gastric acid output, 6 hr: control 91 ± 12; for Gastric acid output, 7 hr: control 99 ± 10; for Gastric acid output, 5 hr: control 104 ± 18; for Gastric acid output, 4 hr: control 110 ± 25; for Gastric acid output, 3 hr: control 141 ± 32; for Gastric acid output, 2 hr: control 195 ± 48; for TOTAL OUTPUT (gastric acid): control 1043 ± 102
Description: (A) In addition, rats of all groups were given cysteamine HCL, 15 mg. 100
g p.o. × 1, 30 min. after (the last dose of) MDO--NPA.
(B) At the opening of gastric fistula

[4] = group 3: 0.1 mg/100 g × 1 day, 1 week
[5] = group 3: 0.1 mg/100 g × 1 day, 1 week, P < 0.01
[6] = group 3: 0.1 mg/100 g × 1 day, 1 week, P < 0.001
[7] = group 3: 0.1 mg/100 g × 1 day, 1 week, P < 0.09

CCCN1CCc2cccc3c2[C@H]1Cc1ccc2c(c1-3)OCO2 [MDO-NPA, (-) 10, 11-methylenedioxy-N-n-propylnoraporphine-HCl]
Stereotypy Score (rats [1]; 1 mg/kg I.P., rated one hour, maximum 18, N=6, mean ±SEM): 16.5 ± 0.8 | Duration of Effect (stereotypy) (rats [1]; 1 mg/kg I.P.): 116 ± 12 min | Duration of Effect (stereotypy) (rats [1]; 1 mg/kg P.O.): 112 ± 20 min | Stereotypy Score (rats [1]; 1 mg/kg S.C., rated one hour, maximum 18, N=6, mean ±SEM): 17.5 ± 0.4 | Duration of Effect (stereotypy) (rats [1]; 1 mg/kg S.C.): 106 ± 10 min | Stereotypy Score for 30 min after MDO--NPA (rats [1]; 1 mg/kg i.p.): 16.5 ± 1.2 | Stereotypy Score for 30 min after MDO--NPA (rats [1]; 1 mg/kg p.o.): 15.5 ± 1.6 | Stereotypy Score (rats [1]; MDO-NPA 0.3 mg/kg, haloperidol 0, 60 min, maximum 18, N=6): 11.6 ± 0.8 | Stereotypy Score (rats [1]; MDO-NPA 0.3 mg/kg, haloperidol 0.3 mg/kg 30 min before, p<0.0001): 0.3 ± 0.2 | Stereotypy Score (rats [1]; MDO-NPA 0.3 mg/kg, haloperidol 1.0 mg/kg 30 min before, p<0.0001): 0.3 ± 0.2 | Stereotypy Score (rats [1]; MDO-NPA 1.0 mg/kg, haloperidol 0, 60 min, maximum 18, N=6): 16.6 ± 0.4 | Stereotypy Score (rats [1]; MDO-NPA 1.0 mg/kg, haloperidol 0.3 mg/kg 30 min before, p<0.0001): 0.5 ± 0.2 | Stereotypy Score (rats [1]; MDO-NPA 1.0 mg/kg, haloperidol 1.0 mg/kg 30 min before, p<0.0001): 1.2 ± 0.4 | Stereotypy (rats [1]; SKF-525A 40 mg/kg i.p. before MDO-NPA 0.30 mg/kg i.p., p<0.01 vs control): 1.7 ± 0.6 | Stereotypy (rats [1]; SKF-525A 40 mg/kg i.p. before MDO-NPA 1.0 mg/kg i.p., p<0.01 vs control): 0.8 ± 0.2 | Stereotypy (rats [1]; SKF-525A 40 mg/kg i.p. before MDO-NPA 3.0 mg/kg i.p., p<0.01 vs control): 0.8 ± 0.5 | Stereotypy (rats [1]; control (vehicle pretreated), MDO-NPA 0.30 mg/kg i.p., score over one hour): 12.8 ± 0.6 | Stereotypy (rats [1]; control (vehicle pretreated), MDO-NPA 1.0 mg/kg i.p., score over one hour): 16.5 ± 0.1 | Stereotypy (rats [1]; control (vehicle pretreated), MDO-NPA 3.0 mg/kg i.p., score over one hour): 16.2 ± 0.9 | dependence of duration of action on dose (rats [1]; i.p.): consistent increase in duration of action with increased dose | duration of stereotyped behavioral effects vs other agents (rats [1]; i.p., for MDO-NPA at doses above 1 μmole/kg): exceeded that of NPA | minimal effective dose (rats [2]; Rattus norvegicus, ip, read-out: dose producing increases in general motor activity): > 2 µmol/kg | Activity (rats [2]; SKF-525A 40 mg/kg i.p. 30 min before MDO-NPA 0.05 mg/kg i.p., p<0.01 vs control): 425 ± 40 counts/hour | Activity (rats [2]; SKF-525A 40 mg/kg i.p. 30 min before MDO-NPA 0.10 mg/kg i.p., p<0.01 vs control): 415 ± 29 counts/hour | Activity (rats [2]; SKF-525A 40 mg/kg i.p. 30 min before MDO-NPA 0.20 mg/kg i.p., p<0.01 vs control): 410 ± 32 counts/hour | Activity (rats [2]; SKF-525A 40 mg/kg i.p. 30 min before MDO-NPA 0.30 mg/kg i.p.): 440 ± 38 counts/hour | Activity (rats [2]; control (vehicle pretreated), MDO-NPA 0.05 mg/kg i.p.): 190 ± 20 counts/hour | Activity (rats [2]; control (vehicle pretreated), MDO-NPA 0.10 mg/kg i.p.): 130 ± 30 counts/hour | Activity (rats [2]; control (vehicle pretreated), MDO-NPA 0.20 mg/kg i.p.): 260 ± 33 counts/hour | Activity (rats [2]; control (vehicle pretreated), MDO-NPA 0.30 mg/kg i.p.): 435 ± 29 counts/hour | dose of maximum effect, inhibition of locomotor activity (rats [2]; i.p., about 0.1 mg/kg): 0.3 µmol/kg | dose of maximum effect, catalepsy (rats [3]): 0.3 µmol/kg | catalepsy (rats [3]; doses similar to those which inhibited general activity): strong catalepsy | Adenylate cyclase stimulation (cAMP) (Adenylate cyclase): 2.92 ± 0.32 pmol/assay | INITIAL OUTPUT (gastric acid) (gastric acid output; group 2: × 1 day, P < 0.001): 47 ± 13 μ Eq | Gastric acid output, 1 hr (gastric acid output; group 2: × 1 day): 28 ± 18 μ Eq | Gastric acid output, 6 hr (gastric acid output; group 2: × 1 day, P < 0.01): 20 ± 11 μ Eq | Gastric acid output, 7 hr (gastric acid output; group 2: × 1 day, P < 0.001): 18 ± 6 μ Eq | Gastric acid output, 5 hr (gastric acid output; group 2: × 1 day, P < 0.01): 10 ± 3 μ Eq | Gastric acid output, 4 hr (gastric acid output; group 2: × 1 day, P < 0.09): 17 ± 8 μ Eq | Gastric acid output, 3 hr (gastric acid output; group 2: × 1 day): 81 ± 40 μ Eq | Gastric acid output, 2 hr (gastric acid output; group 2: × 1 day): 66 ± 29 μ Eq | TOTAL OUTPUT (gastric acid) (gastric acid output; group 2: × 1 day, P < 0.001): 288 ± 67 μ Eq | INITIAL OUTPUT (gastric acid) (gastric acid output; [4]): 120 ± 36 μ Eq | Gastric acid output, 1 hr (gastric acid output; [4]): 29 + 10 μ Eq | Gastric acid output, 6 hr (gastric acid output; [5]): 18 ± 14 μ Eq | Gastric acid output, 7 hr (gastric acid output; [6]): 9 ± 4 μ Eq | Gastric acid output, 5 hr (gastric acid output; [5]): 17 ± 7 μ Eq | Gastric acid output, 4 hr (gastric acid output; [5]): 14 ± 6 μ Eq | Gastric acid output, 3 hr (gastric acid output; [7]): 36 ± 9 μ Eq | Gastric acid output, 2 hr (gastric acid output; [7]): 66 + 21 μ Eq | TOTAL OUTPUT (gastric acid) (gastric acid output; [6]): 306 ± 62 μ Eq
